From ChEMBL document CHEMBL5120794, “Development of 5-hydroxyl-1-azabenzanthrone derivatives as dual binding site and selective acetylcholinesterase inhibitors” (Eur J Med Chem, 2022)
Activity calls are given as the source filed them. No cut-off for these calls is given here.

How the values were obtained:
[1] = molecular target: Acetylcholinesterase (Electrophorus electricus, UniProt O42275); assay: Inhibition of Electrophorus electricus AchE using […] as substrate incubated for 10 mins followed by substrate addition measured at 0 to 180 secs by Ellman's method
Acetylcholinesterase, sequence (O42275 whole entry): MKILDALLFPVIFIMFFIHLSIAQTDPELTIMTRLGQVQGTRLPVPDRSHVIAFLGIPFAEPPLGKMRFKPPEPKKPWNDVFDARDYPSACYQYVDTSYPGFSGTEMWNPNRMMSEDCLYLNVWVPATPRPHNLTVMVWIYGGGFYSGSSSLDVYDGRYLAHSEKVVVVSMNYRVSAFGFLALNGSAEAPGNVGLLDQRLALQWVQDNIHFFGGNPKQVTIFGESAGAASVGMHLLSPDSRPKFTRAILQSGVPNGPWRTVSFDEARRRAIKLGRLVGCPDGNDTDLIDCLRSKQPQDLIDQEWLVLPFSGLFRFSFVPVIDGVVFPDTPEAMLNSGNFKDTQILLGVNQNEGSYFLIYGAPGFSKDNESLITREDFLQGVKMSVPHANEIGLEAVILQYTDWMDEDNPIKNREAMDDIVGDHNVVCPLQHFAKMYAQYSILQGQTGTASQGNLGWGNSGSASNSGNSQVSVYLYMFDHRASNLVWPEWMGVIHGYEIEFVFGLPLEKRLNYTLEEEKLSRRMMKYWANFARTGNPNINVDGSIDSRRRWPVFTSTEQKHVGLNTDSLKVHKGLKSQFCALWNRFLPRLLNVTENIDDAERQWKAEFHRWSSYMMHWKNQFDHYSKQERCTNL

[2] = molecular target: Amyloid-beta precursor protein (Homo sapiens) (UniProt P05067); assay: Inhibition of amyloid beta (1 to 42) (unknown origin) self-induced aggregation at 25 uM measured after 46 to 48 hrs by Thioflavin binding assay relative to control; details: time 46-48 hrs
Amyloid-beta precursor protein (Homo sapiens), sequence (P05067 whole entry): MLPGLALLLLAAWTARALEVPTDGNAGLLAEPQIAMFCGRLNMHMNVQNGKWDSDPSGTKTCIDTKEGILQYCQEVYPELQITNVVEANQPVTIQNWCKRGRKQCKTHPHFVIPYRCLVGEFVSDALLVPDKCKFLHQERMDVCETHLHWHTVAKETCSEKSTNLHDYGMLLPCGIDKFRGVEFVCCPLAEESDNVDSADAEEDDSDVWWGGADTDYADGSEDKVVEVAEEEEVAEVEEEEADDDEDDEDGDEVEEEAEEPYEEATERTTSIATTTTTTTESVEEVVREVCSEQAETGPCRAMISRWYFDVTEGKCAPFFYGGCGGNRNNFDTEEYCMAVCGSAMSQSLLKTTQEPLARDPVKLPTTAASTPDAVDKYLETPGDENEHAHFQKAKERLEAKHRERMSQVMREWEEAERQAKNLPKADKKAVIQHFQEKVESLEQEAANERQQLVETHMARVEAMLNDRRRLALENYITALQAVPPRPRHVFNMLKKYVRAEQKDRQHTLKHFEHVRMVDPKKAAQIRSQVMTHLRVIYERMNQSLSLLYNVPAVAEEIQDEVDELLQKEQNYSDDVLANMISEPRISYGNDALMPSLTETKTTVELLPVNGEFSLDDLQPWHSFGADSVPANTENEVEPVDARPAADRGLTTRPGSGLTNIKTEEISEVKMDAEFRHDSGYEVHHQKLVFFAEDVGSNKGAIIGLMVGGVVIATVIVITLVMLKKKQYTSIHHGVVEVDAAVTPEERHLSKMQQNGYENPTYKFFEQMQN

[3] = tested on: PC-12; assay: Cytoprotective activity against H2O2-induced oxidative damage in rat PC-12 cells assessed as cell viability at 1 uM preincubated for 4 hrs followed by H2O2 treatment for another 24 hrs by MTT assay; format: functional, cell-based; details: time 28.0 hrs
[4] = molecular target: Cholinesterase (Equus caballus, UniProt P81908)
Cholinesterase, sequence (P81908 whole entry): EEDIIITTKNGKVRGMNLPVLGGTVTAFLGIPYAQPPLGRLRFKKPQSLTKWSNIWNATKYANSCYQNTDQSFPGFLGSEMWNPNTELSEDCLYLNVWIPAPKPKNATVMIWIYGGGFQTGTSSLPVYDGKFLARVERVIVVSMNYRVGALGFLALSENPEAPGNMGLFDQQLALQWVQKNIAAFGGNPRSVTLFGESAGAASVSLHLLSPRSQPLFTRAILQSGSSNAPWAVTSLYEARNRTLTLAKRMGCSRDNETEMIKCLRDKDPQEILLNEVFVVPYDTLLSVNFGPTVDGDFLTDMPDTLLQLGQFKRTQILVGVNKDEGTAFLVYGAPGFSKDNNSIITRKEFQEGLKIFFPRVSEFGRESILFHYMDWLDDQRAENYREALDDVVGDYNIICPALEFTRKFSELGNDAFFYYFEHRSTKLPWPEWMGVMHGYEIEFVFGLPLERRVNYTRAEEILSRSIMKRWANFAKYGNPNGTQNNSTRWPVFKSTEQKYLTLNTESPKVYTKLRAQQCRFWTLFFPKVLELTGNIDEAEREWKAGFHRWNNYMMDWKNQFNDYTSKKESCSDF
Description: Inhibition of equine serum BchE using S-butyryl thiocholine iodide as substrate incubated for 10 mins followed by substrate addition measured at 0 to 180 secs by Ellman's method

Row | Compound | IC50 [1] [µM] | inhibition [2] [%] | Activity [3] | IC50 [4] [µM]
1 | CC1CCCCN1CCOc1cc2c3c(nccc3c1)-c1ccccc1C2=O (stereo not given) | 1.31 | 16.2 | Active | > 100
2 | O=C1c2ccccc2-c2nccc3cc(OCCCN4CCCCC4)cc1c23 | 0.14 | 41.2 | Active | 35.3
3 | O=C1c2ccccc2-c2nccc3cc(OCCCCN4CCCCC4)cc1c23 | 0.15 | 32.1 | Active | 15.4
4 | O=C1c2ccccc2-c2nccc3cc(OCCCCN4CCOCC4)cc1c23 | 7.3 | 13.1 | Active | > 100
5 | O=C1c2ccccc2-c2nccc3cc(OCCN4CCN(CCO)CC4)cc1c23 | 0.42 | 14.9 | Active | > 100
